Patent US20230295118A1 (EnhancedBio Inc., priority 2022, published 2023)

Experiments:
Assay type in all cases: cell-based
CDK6 = biological target: T1, CDK6 (Homo sapiens, UniProt Q00534); experiment: CDK6 degradation (DC50, Dmax)
T1 construct: endogenous in cells

CDK4 = biological target: T2, CDK4 (Homo sapiens, UniProt P11802); experiment: CDK4 degradation (DC50, Dmax)
T2 construct: endogenous in cells

[1] = test system: mantle cell lymphoma cell (Mino or JeKo-1); experiment: Antiproliferative effect, MTS cell viability assay; conditions: 72 h; for IC50: mantle cell lymphoma cell (Mino or JeKo-1), MTS assay, read-out: IC50 (anti-proliferation)
Procedure: Antiproliferative effect of the exemplary compounds was assessed in B-cell malignancy models.
To assess the effect of the exemplary compounds on cell viability in B-cell malignancy models by degradation of CDK4/6 proteins, Mino cells were treated with varying concentrations of exemplary compounds (0, 0.0001, 0.001, 0.01, 0.1, 1 μM) or positive control (palbociclib and abemaciclib). Under these conditions, cell viability was determined by an MTS assay. Cytotoxicity was assayed by the determination of reduced tetrazolium (formazan) created by metabolically active cells as detected at 490 nanometers (nm) absorbance using a microplate reader (BMG Labtech, Cary, NC, USA).
The exemplary compounds attenuated the viability of Mino cells in a concentration-dependent manner at 72 h post treatment. Results are shown in Table 1 and FIGS. 2-15 for each exemplary compound.

T1 sequence (Q00534 whole entry): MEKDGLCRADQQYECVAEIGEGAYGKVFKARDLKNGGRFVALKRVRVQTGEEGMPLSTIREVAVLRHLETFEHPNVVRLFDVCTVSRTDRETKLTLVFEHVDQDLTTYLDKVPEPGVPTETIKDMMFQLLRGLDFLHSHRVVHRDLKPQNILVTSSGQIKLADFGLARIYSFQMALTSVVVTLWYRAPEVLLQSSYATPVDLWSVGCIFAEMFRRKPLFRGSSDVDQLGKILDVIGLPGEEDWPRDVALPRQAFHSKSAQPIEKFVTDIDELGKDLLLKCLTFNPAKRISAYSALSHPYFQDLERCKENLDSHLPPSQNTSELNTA
T2 sequence (P11802 whole entry): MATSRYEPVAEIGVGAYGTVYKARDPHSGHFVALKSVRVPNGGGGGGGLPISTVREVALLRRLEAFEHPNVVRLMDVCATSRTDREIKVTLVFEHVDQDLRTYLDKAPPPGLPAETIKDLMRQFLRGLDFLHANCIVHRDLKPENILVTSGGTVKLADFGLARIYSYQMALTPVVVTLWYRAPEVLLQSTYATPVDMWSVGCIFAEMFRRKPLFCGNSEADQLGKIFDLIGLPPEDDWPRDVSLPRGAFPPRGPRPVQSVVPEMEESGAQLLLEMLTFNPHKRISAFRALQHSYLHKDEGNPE

| Structure (SMILES) | DC50 (CDK6) | Dmax (CDK6) | DC50 (CDK4) | Dmax (CDK4) | IC50 [1] | inhibition of cell proliferation of Mino cells ([1]; Mino cells, 0-1 μM, result in words) |
| --- | --- | --- | --- | --- | --- | --- |
| Cc1nc2c(F)cc(-c3nc(Nc4ccc(CC5CCN(CC6CN(c7ccc8c(c7)CN(C7CCC(=O)NC7=O)C8=O)C6)CC5)cn4)ncc3F)cc2n1C(C)C (stereo not shown) [Compound 140, 3-(5-(3-((4-((6-((5-fluoro-4-(4-fluoro-1-isopropyl-2-methyl-1H-benzo[d]imidazol-6-yl)pyrimidin-2-yl)amino)pyridin-3-yl)methyl)piperidin-1-yl)methyl)azetidin-1-yl)-1-oxoisoindolin-2-yl)piperidine-2,6-dione] | < 50 nM | > 80% | < 50 nM | > 80% | < 50 nM | – |
| CC(=O)c1c(C)c2cnc(Nc3ccc(N4CCN(CCC5CCN(c6ccc7c(c6)CN(C6CCC(=O)NC6=O)C7=O)CC5)CC4)cn3)nc2n(C2CCCC2)c1=O (stereo not shown) [Compound 70, 3-(5-(4-(2-(4-(6-((6-acetyl-8-cyclopentyl-5-methyl-7-oxo-7,8-dihydropyrido[2,3-d]pyrimidin-2-yl)amino)pyridin-3-yl)piperazin-1-yl)ethyl)piperidin-1-yl)-1-oxoisoindolin-2-yl) piperidine-2,6-dione] | 50 to 200 nM | > 60% | 50 to 200 nM | > 50% | 50 to 200 nM | – |
| CC(=O)c1c(C)c2cnc(Nc3ccc(N4CCN(C(=O)C5CN(c6ccc7c(c6)C(=O)N(C6CCC(=O)NC6=O)C7=O)C5)CC4)cn3)nc2n(C2CCCC2)c1=O (stereo not shown) [Compound 121, 5-(3-(4-(6-((6-acetyl-8-cyclopentyl-5-methyl-7-oxo-7,8-dihydropyrido[2,3-d]pyrimidin-2-yl)amino)pyridin-3-yl)piperazine-1-carbonyl)azetidin-1-yl)-2-(2,6-dioxopiperidin-3-yl)isoindoline-1,3-dione] | < 50 nM | > 80% | < 50 nM | > 80% | < 50 nM | – |
| CC(=O)c1c(C)c2cnc(Nc3ccc(N4CCN(C(=O)C5CN(c6ccc(NC7CCC(=O)NC7=O)cc6)C5)CC4)cn3)nc2n(C2CCCC2)c1=O (stereo not shown) [Compound 124, 3-((4-(3-(4-(6-((6-acetyl-8-cyclopentyl-5-methyl-7-oxo-7,8-dihydropyrido[2,3-d]pyrimidin-2-yl)amino)pyridin-3-yl)piperazine-1-carbonyl)azetidin-1-yl)phenyl)amino) piperidine-2,6-dione] | 50 to 200 nM | > 60% | 50 to 200 nM | > 80% | < 50 nM | – |
| CC(=O)c1c(C)c2cnc(Nc3ccc(N4CCN(C5CCN(c6cccc7c6C(=O)N(C6CCC(=O)NC6=O)C7=O)CC5)CC4)cn3)nc2n(C2CCCC2)c1=O (stereo not shown) [Compound 77, 4-(4-(4-(6-((6-acetyl-8-cyclopentyl-5-methyl-7-oxo-7,8-dihydropyrido[2,3-d]pyrimidin-2-yl)amino)pyridin-3-yl)piperazin-1-y1)piperidin-1-yl)-2-(2,6-dioxopiperidin-3-yl) isoindoline-1,3-dione] | 50 to 200 nM | > 60% | 50 to 200 nM | > 60% | 50 to 200 nM | – |
| Cc1nc2c(F)cc(-c3nc(Nc4ccc(CN5CCN(C(=O)C6CN(c7ccc8c(c7)CN(C7CCC(=O)NC7=O)C8=O)C6)CC5)cn4)ncc3F)cc2n1C(C)C (stereo not shown) [Compound 136, 3-(5-(3-(4-((6-((5-fluoro-4-(4-fluoro-1-isopropyl-2-methyl-1H-benzo[d]imidazol-6-yl)pyrimidin-2-yl)amino)pyridin-3-yl)methyl)piperazine-1-carbonyl)azetidin-1-yl)-1-oxoisoindolin-2-yl) piperidine-2,6-dione] | 50 to 200 nM | > 80% | 50 to 200 nM | > 80% | < 50 nM | – |
| CC(=O)c1c(C)c2cnc(Nc3ccc(N4CCN(C5CCN(C(=O)N6CCN(c7ccc8c(c7)CN(C7CCC(=O)NC7=O)C8=O)CC6)CC5)CC4)cn3)nc2n(C2CCCC2)c1=O (stereo not shown) [Compound 36, 3-(5-(4-(4-(4-(6-((6-acetyl-8-cyclopentyl-5-methyl-7-oxo-7,8-dihydropyrido[2,3-d]pyrimidin-2-yl)amino)pyridin-3-yl)piperazin-1-yl)piperidine-1-carbonyl)piperazin-1-yl)-1-oxoisoindolin-2-yl)piperidine-2,6-dione] | > 200 nM | > 60% | > 200 nM | > 60% | 50 to 200 nM | – |
| CC(=O)c1c(C)c2cnc(Nc3ccc(N4CCN(C5CCN(C(=O)N6CCC(c7ccc8c(c7)CN(C7CCC(=O)NC7=O)C8=O)CC6)CC5)CC4)cn3)nc2n(C2CCCC2)c1=O (stereo not shown) [Compound 38, 3-(5-(1-(4-(4-(6-((6-acetyl-8-cyclopentyl-5-methyl-7-oxo-7,8-dihydropyrido[2,3-d]pyrimidin-2-yl)amino)pyridin-3-yl)piperazin-1-yl)piperidine-1-carbonyl)piperidin-4-yl)-1-oxoisoindolin-2-yl)piperidine-2,6-dione] | > 200 nM | > 50% | > 200 nM | > 50% | > 200 nM | – |
| CC(=O)c1c(C)c2cnc(Nc3ccc(N4CCN(CCN(C)c5ccc6c(c5)C(=O)N(C5CCC(=O)NC5=O)C6=O)CC4)cn3)nc2n(C2CCCC2)c1=O (stereo not shown) [Compound 55, 5-((2-(4-(6-((6-acetyl-8-cyclopentyl-5-methyl-7-oxo-7,8-dihydropyrido[2,3-d]pyrimidin-2-yl)amino)pyridin-3-yl)piperazin-1-yl)ethyl)(methyl)amino)-2-(2,6-dioxopiperidin-3-yl) isoindoline-1,3-dione] | 50 to 200 nM | > 60% | 50 to 200 nM | > 60% | 50 to 200 nM | – |
| Cc1nc2c(F)cc(-c3nc(Nc4ccc(CN5CCN(C(=O)C6CN(c7ccc(NC8CCC(=O)NC8=O)cc7)C6)CC5)cn4)ncc3F)cc2n1C(C)C (stereo not shown) [Compound 138, 3-((4-(3-(4-((6-((5-fluoro-4-(4-fluoro-1-isopropyl-2-methyl-1H-benzo[d]imidazol-6-yl)pyrimidin-2-yl)amino)pyridin-3-yl)methyl)piperazine-1-carbonyl)azetidin-1-yl)phenyl)amino) piperidine-2,6-dione] | 50 to 200 nM | > 60% | 50 to 200 nM | > 60% | 50 to 200 nM | – |
| Cc1nc2c(F)cc(-c3nc(Nc4ccc(CC5CCN(CC6CCN(c7ccc8c(c7)C(=O)N(C7CCC(=O)NC7=O)C8=O)CC6)CC5)cn4)ncc3F)cc2n1C(C)C (stereo not shown) [Compound 157, 2-(2,6-dioxopiperidin-3-yl)-5-(4-((4-((6-((5-fluoro-4-(4-fluoro-1-isopropyl-2-methyl-1H-benzo[d]imidazol-6-yl)pyrimidin-2-yl)amino)pyridin-3-yl)methyl)piperidin-1-yl)methyl)piperidin-1-yl)isoindoline-1,3-dione] | < 50 nM | > 80% | < 50 nM | > 80% | < 50 nM | – |
| CC(=O)c1c(C)c2cnc(Nc3ccc(N4CCN(CC5CN(c6ccc7c(c6)C(=O)N(C6CCC(=O)NC6=O)C7=O)C5)CC4)cn3)nc2n(C2CCCC2)c1=O (stereo not shown) [Compound 80, 5-(3-((4-(6-((6-acetyl-8-cyclopentyl-5-methyl-7-oxo-7,8-dihydropyrido[2,3-d]pyrimidin-2-yl)amino)pyridin-3-yl)piperazin-1-yl)methyl)azetidin-1-yl)-2-(2,6-dioxopiperidin-3-yl) isoindoline-1,3-dione] | < 50 nM | > 80% | < 50 nM | > 80% | < 50 nM | – |
| CN(C)C(=O)c1cc2cnc(Nc3ccc(N4CCN(CCCNc5ccc6c(c5)CN(C5CCC(=O)NC5=O)C6=O)CC4)cn3)nc2n1C1CCCC1 (stereo not shown) [Compound 76, 7-cyclopentyl-2-((5-(4-(3-((2-(2,6-dioxopiperidin-3-yl)-1-oxoisoindolin-5-yl)amino)propyl)piperazin-1-yl)pyridin-2-yl)amino)-N,N-dimethyl-7H-pyrrolo[2,3-d]pyrimidine-6-carboxamide] | < 50 nM | > 80% | < 50 nM | > 80% | < 50 nM | dose-dependent inhibition of cell proliferation |
| CC(=O)c1c(C)c2cnc(Nc3ccc(N4CCN(C(=O)N5CCC(C6CCN(c7ccc8c(c7)CN(C7CCC(=O)NC7=O)C8=O)CC6)CC5)CC4)cn3)nc2n(C2CCCC2)c1=O (stereo not shown) [Compound 10, 3-(5-(1′-(4-(6-((6-acetyl-8-cyclopentyl-5-methyl-7-oxo-7,8-dihydropyrido[2,3-d]pyrimidin-2-yl)amino)pyridin-3-yl)piperazine-1-carbonyl)-[4,4′-bipiperidin]-1-yl)-1-oxoisoindolin-2-yl)piperidine-2,6-dione] | > 200 nM | > 50% | > 200 nM | > 50% | > 200 nM | – |
| Cc1nc2c(F)cc(-c3nc(Nc4ccc(CN5CCN(C6CCN(c7ccc8c(c7)C(=O)N(C7CCC(=O)NC7=O)C8=O)CC6)CC5)cn4)ncc3F)cc2n1C(C)C (stereo not shown) [Compound 165, 2-(2,6-dioxopiperidin-3-yl)-5-(4-(4-((6-((5-fluoro-4-(4-fluoro-1-isopropyl-2-methyl-1H-benzo[d]imidazol-6-yl)pyrimidin-2-yl)amino)pyridin-3-yl)methyl)piperazin-1-yl)piperidin-1-yl)isoindoline-1,3-dione] | 50 to 200 nM | > 80% | 50 to 200 nM | > 80% | < 50 nM | – |
